Laboratory results reported in ChEMBL document CHEMBL5380809, “Discovery of Novel N-Hydroxy-1,2,4-oxadiazole-5-formamides as ASM Direct Inhibitors for the Treatment of Atherosclerosis” (J Med Chem, 2023).
Calls of active or inactive are those of the source. The rule behind the calls is not given here.

Tests used:
[1] = In vivo inhibition of aSMase in C57BL/6 mouse assessed as decrease in liver aSMase level at 40 mg/kg, ip bid for 1 week by ELISA method relative to control; format: functional; set-up: scale not given: the % may be the effect or the level left; conditions: time 1 weeks
[2] = Clearance in ICR mouse at 1 mg/kg, iv measured for 0.083 to 24 hrs by LC-MS/MS analysis; format: ADME, organism-based; conditions: in vivo, time 0.083-24 hrs
HUVEC [3] = experiment: Antiinflammatory activity against HUVEC cells assessed as decrease in LPS-induced TNF-alpha level measured after 22 hrs by ELISA method; format: functional, cell-based; conditions: Homo sapiens, dose 1-5 µM
Mus musculus [4] = experiment: Antiatherosclerotic activity in high-fat diet fed ApoE-/- mouse assessed as reduction in plasma ceramide level administered intraperitoneally twice daily measured after 8 weeks by ELISA method; format: functional, organism-based; conditions: dose 12-40 mg/kg, route ip
[5] = Oral bioavailability in ICR mouse at 10 mg/kg measured for 0.083 to 24 hrs by LC-MS/MS analysis; format: ADME, organism-based; conditions: in vivo, time 0.083-24 hrs
HUVEC [6] = experiment: Upregulation of intracellular sphingomyelin level in HUVEC cells measured after 22 hrs by ELISA method; format: functional, cell-based; conditions: Homo sapiens, dose <= 5.0 µM
HUVEC [7] = experiment: Downregulation of intracellular ceramide level in LPS-induced HUVEC cells at 5 uM measured after 22 hrs by ELISA method; format: functional, cell-based; conditions: Homo sapiens
Mus musculus [8] = experiment: In vivo inhibition of aSMase in C57BL/6 mouse assessed as decrease in plasma sphingomyelin level at 6 to 40 mg/kg, ip bid for 1 week by ELISA method; format: functional, organism-based; conditions: dose 6-40 mg/kg, time 1.0 weeks
[9] = MRT (0 to t) in ICR mouse at 1 mg/kg, iv measured for 0.083 to 24 hrs by LC-MS/MS analysis; format: ADME, organism-based; conditions: in vivo, time 0.083-24 hrs
[10] = MRT (0 to infinity) in ICR mouse at 10 mg/kg, po measured for 0.083 to 24 hrs by LC-MS/MS analysis; format: ADME, organism-based; conditions: in vivo, time 0.083-24 hrs
HUVEC [11] = experiment: Antiinflammatory activity against HUVEC cells assessed as decrease in LPS-induced IL-6 level measured after 22 hrs by ELISA method; format: functional, cell-based; conditions: Homo sapiens, dose 1-5 µM
[12] = MRT (0 to t) in ICR mouse at 10 mg/kg, po measured for 0.083 to 24 hrs by LC-MS/MS analysis; format: ADME, organism-based; conditions: in vivo, time 0.083-24 hrs
Mus musculus [13] = experiment: In vivo inhibition of aSMase in C57BL/6 mouse assessed as decrease in plasma ceramide level at 6 to 40 mg/kg, ip bid for 1 week by ELISA method; format: functional, organism-based; conditions: dose 6-40 mg/kg, time 1.0 weeks
HUVEC [14] = experiment: Cytotoxicity against HUVEC cells assessed as cell growth inhibition at 0.5 to 20 uM incubated for 24 to 48 hrs by MTT assay; format: toxicity, cell-based; conditions: human, dose lower 0.5 µM, time lower 24 hrs, dose upper 20 µM, time upper 48 hrs
Mus musculus [15] = experiment: Antiatherosclerotic activity in high-fat diet fed ApoE-/- mouse assessed as reduction in plasma total triacylglycerol level at 12 to 40 mg/kg, ip bid measured after 8 weeks; format: functional, organism-based; conditions: dose 12-40 mg/kg
[16] = Cmax in ICR mouse at 1 mg/kg, iv measured for 0.083 to 24 hrs by LC-MS/MS analysis; format: ADME, organism-based; set-up: time lower 0.083 hrs, dose 1 mg/kg, time upper 24 hrs, route iv; conditions: in vivo
Mus musculus [17] = experiment: Antiatherosclerotic activity in high-fat diet fed ApoE-/- mouse assessed as reduction in plasma total cholesterol level at 12 to 40 mg/kg, ip bid measured after 8 weeks; format: functional, organism-based; conditions: dose 12-40 mg/kg
[18] = AUC (0 to t) in ICR mouse at 1 mg/kg, iv measured for 0.083 to 24 hrs by LC-MS/MS analysis; format: ADME, organism-based; set-up: time 0.083-24 hrs, dose 1 mg/kg, route iv; conditions: in vivo
HUVEC [19] = experiment: Downregulation of intracellular ceramide level in HUVEC cells at 5 uM measured after 22 hrs by ELISA method; format: functional, cell-based; conditions: Homo sapiens
HUVEC [20] = experiment: Upregulation of extracellular sphingomyelin level in HUVEC cells upto 5 uM measured after 22 hrs by ELISA method; format: functional, cell-based; conditions: Homo sapiens

clearance [2]: 73.2 mL/min/kg | bioavailability [5]: 35.4% | MRT last [9]: 4.62 min | MRT inf [10]: 21 min | MRT last [12]: 19.2 min | Cmax [16]: 787 ng/mL | AUC(0-t) [18]: 227 ng·h/mL
SMILES: O=C(NO)c1nc(-c2ccc(COc3ccc(Br)cc3)cc2)no1
Activity [1]: 22% | Activity (HUVEC [3]): Dose-Dependent Effect | Activity (Mus musculus [4]): Dose-Dependent Effect | Activity (HUVEC [6]): Dose-Dependent Effect | Activity (HUVEC [7]): Active | Activity (Mus musculus [8]): Active | Activity (HUVEC [11]): Dose-Dependent Effect | Activity (Mus musculus [13]): Active | Activity (HUVEC [14]): Non-Toxic | Activity (Mus musculus [15]): inactive | Activity (Mus musculus [17]): inactive | Activity (HUVEC [19]): Active | Activity (HUVEC [20]): Active
